Laboratory results from ChEMBL document CHEMBL1156236, “Trypanoside, anti-tuberculosis, leishmanicidal, and cytotoxic activities of tetrahydrobenzothienopyrimidines” (Bioorg Med Chem, 2010).
Converted amounts (≈) assume the structure as drawn. The source made the active and inactive calls. The calls are words filed in the database; no cut-off is given here.

How the values were obtained:
M14 = test: Cytotoxicity against human M14 cells; type: functional
[1] = Cytotoxicity against BALB/c mouse macrophages after 48 hrs by trypan blue dye exclusion method; type: cell-based; settings: Macrophage
Leishmania peruviana = test: Antileishmanial activity against Leishmania peruviana MHOM/PE/LCA08 promastigote infected BALB/c mouse macrophages after 48 hrs by Giemsa staining method; type: functional, organism-based; settings: MHOM/PE/LCA08, 48 h
Leishmania amazonensis [2] = test: Antileishmanial activity against Leishmania amazonensis MHOM/BR/76/LTB-012 amastigotes infected BALB/c mouse macrophages after 48 hrs by MTT assay; type: functional, organism-based; settings: MHOM/BR/76/LTB-012, 48 h
MCF7 = test: Cytotoxicity against human MCF7 cells; type: functional
NCI-H460 = test: Cytotoxicity against human NCI-H460 cells; type: functional
Leishmania amazonensis [3] = test: Antileishmanial activity against Leishmania amazonensis Lma CL1 amastigotes infected BALB/c mouse macrophages after 48 hrs by Giemsa staining method; type: functional, organism-based; settings: Lma CL1, 48 h
Leishmania amazonensis [4] = test: (§1) Antileishmanial activity against Leishmania amazonensis LV79 MPRO/BR/72/M1841 amastigotes infected BALB/c mouse assessed as reduction of parasite burden at 5 mg/kg/day, intralesionally administered after 1 week post infection 3 times per week for 6 weeks measured on week 7 by fluorescence method relative to control; type: functional; set-up: scale not given: the % may be the effect or the level left
Leishmania braziliensis = test: Antileishmanial activity against Leishmania braziliensis MHOM/PE/PER006 promastigote infected BALB/c mouse macrophages after 48 hrs by Giemsa staining method; type: functional, organism-based; settings: MHOM/PE/PER006, 48 h
Leishmania amazonensis [5] = test: as §1, with “week 4” for “week 7”; type: functional; set-up: scale not given: the % may be the effect or the level left
K562 = test: Cytotoxicity against human K562 cells; type: functional
Trypanosoma cruzi [6] = test: Antitrypanosomal activity against Trypanosoma cruzi tulahuen C4 trypomastigotes infected in african green monkey Vero cells assessed as CPRG cleavage after 120 hrs by microplate reader; type: functional, organism-based
HT-29 = test: Cytotoxicity against human HT-29 cells; type: functional
DU-145 = test: Cytotoxicity against human DU145 cells; type: functional
[7] = tested on: Mycobacterium tuberculosis; test: Antitubercular activity against Mycobacterium tuberculosis H37Rv ATCC 27294 after 7 days by microplate alamar blue assay; type: functional; settings: H37Rv ATCC 27294, 168 h
Leishmania amazonensis [8] = test: Antileishmanial activity against Leishmania amazonensis LV79 MPRO/BR/72/M1841 amastigotes infected BALB/c mouse assessed as lesion diameter at 5 mg/kg/day, intralesionally administered after 1 week post infection 3 times per week for 6 weeks measured on week 4 relative to control; type: functional
[9] = Selectivity index, ratio of IC50 for BALB/c mouse macrophages to IC50 for Leishmania amazonensis MHOM/BR/76/LTB-012
[10] = Cytotoxicity against BALB mouse 3T3 cells; type: cell-based; settings: BALB 3T3 cells
Leishmania amazonensis [11] = test: Antileishmanial activity against Leishmania amazonensis LV79 MPRO/BR/72/M1841 amastigotes infected BALB/c mouse assessed as lesion diameter at 5 mg/kg/day, intralesionally administered after 1 week post infection 3 times per week for 6 weeks measured on week 7 relative to control; type: functional
Vero = test: Cytotoxicity against african green monkey Vero cells after 72 hrs by MTS assay; settings: Chlorocebus sabaeus, Vero, 72 h
[12] = Selectivity index, ratio of IC50 for african green monkey Vero cells to MIC for Mycobacterium tuberculosis H37Rv ATCC 27294 by microplate alamar blue assay; type: functional
[13] = tested on: Mycobacterium tuberculosis; test: Antitubercular activity against Mycobacterium tuberculosis H37Rv ATCC 27294 after 7 days by low oxygen recovery assay; type: functional; settings: H37Rv ATCC 27294, 168 h
[14] = Selectivity index, ratio of IC50 for african green monkey Vero cells to IC50 for Trypanosoma cruzi tulahuen C4; settings: Vero cells
[15] = Selectivity index, ratio of IC50 for african green monkey Vero cells to MIC for Mycobacterium tuberculosis H37Rv ATCC 27294 by low oxygen recovery assay; type: functional
Trypanosoma cruzi [16] = test: Antitrypanosomal activity against Trypanosoma cruzi tulahuen C4 trypomastigotes infected mouse assessed as decrease in parasite replication at 20 mg/kg/day, ip on days 6 to 11 days post infection after 6 days; type: functional, organism-based

SMILES	GI50 (M14) [µM]	IC50 [1] [µM]	IC50 (Leishmania peruviana) [µM]	IC50 (Leishmania amazonensis [2]) [µM]	GI50 (MCF7) [µM]	GI50 (NCI-H460) [µM]	IC50 (Leishmania amazonensis [3]) [µM]	Activity (Leishmania amazonensis [4]) [%]	GI50 (K562) [µM]	IC50 (Trypanosoma cruzi [6]) [µM]	GI50 (HT-29) [µM]	GI50 (DU-145) [µM]	MIC [7] [µM]	Ratio IC50 [9]	GI50 [10] [µM]	IC50 (Vero) [µM]	Ratio IC50 [12]	MIC [13] [µM]	selectivity ratio [14]	Ratio IC50 [15]	also measured
CCc1ccc(/C=N/Nc2ncnc3sc4c(c23)CCCC4)cc1	190	151	9.5	15.7	18.5	28.2	8.2	2	11.1	> 25	32.2	58.8	> 250	9.6	36.1	–	–	–	–	–	IC50 (Leishmania braziliensis): 10.5 µM; Activity (Leishmania amazonensis [5]): 30%; Activity (Leishmania amazonensis [8]): 3 mm; Activity (Leishmania amazonensis [11]): 4.7 mm
C/C(=N/Nc1ncnc2sc3c(c12)CCCC3)c1ccccc1	19.8	159	–	28.5	16.5	15.9	–	–	10.9	13.7	21.9	16.1	72.6 (≈ 23.4 µg/mL)	5.6	5.4	12.4	1.4	8.7 (≈ 2.81 µg/mL)	0.9	11.5	–
Clc1ccc(/C=N/Nc2ncnc3sc4c(c23)CCCC4)cc1	> 170	142	> 30	1.7	8.4	12.8	> 30	25	6.7	13.1	15.1	14.6	> 250	85.2	18.7	20.4	–	–	1.6	–	IC50 (Leishmania braziliensis): 17.3 µM; Activity (Leishmania amazonensis [5]): 46%; Activity (Leishmania amazonensis [8]): 3.6 mm; Activity (Leishmania amazonensis [11]): 5.2 mm
COc1ccc(/C=N/Nc2ncnc3sc4c(c23)CCCC4)cc1	16.3	63.9	–	47.5	12.5	17.1	–	–	13.9	16	17.3	23.1	71.2 (≈ 24.1 µg/mL)	1.3	14.9	17.7	3.2	26.9 (≈ 9.1 µg/mL)	1.1	8.4	–
O=C(Cn1ccnc1[N+](=O)[O-])NCc1ccccc1	–	–	–	–	–	–	–	–	–	–	–	–	–	–	–	–	–	–	–	–	Activity (Trypanosoma cruzi [16]): Active
FC(F)(F)c1ccc(/C=N/Nc2ncnc3sc4c(c23)CCCC4)cc1	16.9	8.1	–	2	5.4	15.3	–	–	6.6	10.5	7	14.8	16.2 (≈ 6.1 µg/mL)	4.1	10.8	8	5.5	15.9 (≈ 5.98 µg/mL)	0.8	5.6	–
CCC(CC)=NNc1ncnc2sc3c(c12)CCCC3	20.6	162	7	19	15.1	15.2	10.9	17	11.6	20.7	38.9	15	160 (≈ 46.2 µg/mL)	8.5	4.8	20.8	0.7	–	1	–	IC50 (Leishmania braziliensis): 11.1 µM; Activity (Leishmania amazonensis [5]): 65%; Activity (Leishmania amazonensis [8]): 2.8 mm; Activity (Leishmania amazonensis [11]): 4.9 mm
C(=N\Nc1ncnc2sc3c(c12)CCCC3)/c1ccco1	11.1	2.4	–	4.2	1	7.1	–	–	4	16.1	8.5	15.6	39.9 (≈ 11.9 µg/mL)	0.6	7.8	10.1	1	9.7 (≈ 2.89 µg/mL)	0.6	4.2	–
